Several values for one entry are separate records, joined by “and”; a condition that tells them apart may be missing. Equal values may be shown once.
Columns and labels:
[1] = test system: E. coli IH3080; assay: Sensitization to rifampin: well diffusion growth inhibition on LB plates containing rifampin; format: cell-based, Escherichia coli; conditions: 4 μg of compound
[2] = test system: E. cloacae ATCC23355; assay: Well diffusion growth inhibition on LB agar plates (direct antibacterial activity); format: cell-based, Enterobacter cloacae
Description: (§1) From an overnight-grown culture of IH3080 on LB agar, a suspension of approx. 10^8 cells/ml was prepared in 0.9% NaCl. Aliquots of this suspension were then pipetted on the agar plates and the plates were gently shaken to spread the suspension evenly on the entire surface of the plate. Thereafter, the unabsorbed part of the suspension was removed by using a Pasteur pipette. After the surface had dried, small wells (diameter, 2 mm) were drilled on the plates (five wells per plate) by using a sterile sharp-edged narrow metal tube, single-use pipette tip, and vacuum suction. Samples (4 μl and 10 μl) of the peptide solution in 0.9% NaCl (at concentrations of 1 μg/ml and 0.1 μg/ml) were then pipetted to the wells and the sample fluids were allowed to absorb. Controls included 0.9% NaCl solution without the compound to be tested. The plates were then incubated for 18 h at 37° C. whereafter the diameters of growth inhibition zones around each well were measured; the diameter of the well itself was not reduced. Finally, the diameters were converted to surface areas of growth inhibition (in square mm).
(§2) The susceptibility of eleven Gram-negative bacterial strains (nine different species) to NAB734 and polymyxin B was compared by using the susceptibility determination method described in Example 2. The strains included those belonging to the species of Serratia marcescens and Proteus mirabilis, both species generally known to be resistant to polymyxin. Furthermore, the susceptibility determination was also performed by using the Gram-positive bacterium, Staphylococcus aureus, also generally known to be polymyxin-resistant. Ten of the strains originated from ATCC (American Type Culture Collection, Manassas, Va., U.S.A.), and one from CCUG (Culture Collection of University of Gothenburg, Sweden). The source of E. coli IH3080 has been described in Example 2. Polymyxin B sulfate was from Sigma-Aldrich (St. Louis, Mo., USA).

[3] = test system: E. coli IH3080 (K1:O18); assay: as above; format: cell-based, Escherichia coli
In short: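 Growth inhibition of encapsulated E. coli IH3080 (K1:O18) was measured by well diffusion on LB agar plates. A suspension of about 10^8 cells/ml in 0.9% NaCl, made from an overnight LB agar culture, was spread over the plates and the excess removed. Once dry, five 2 mm wells were drilled per plate and test solutions added, with 0.9% NaCl as control. After 18 h at 37° C, inhibition zone diameters were measured and converted to surface areas in square mm.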

[4] = test system: S. aureus ATCC 25923; assay: as above; format: cell-based, Staphylococcus aureus
Description: as §1, with “Samples (4 μl and 10 μl) of the peptide solution in 0.9% NaCl (at concentrations of 1 μg/ml and 0.1 μg/ml) were then pipetted to the wells and the sample fluids were allowed to absorb.” left out
as §2

[5] = test system: K. pneumoniae ATCC13883; assay: as above; format: cell-based, Klebsiella pneumoniae
Description: as §1, §2

[6] = test system: P. mirabilis ATCC29906; assay: as above; format: cell-based, Proteus mirabilis
Description: as §1, §2

[7] = test system: A. baumannii ATCC 19606; assay: Sensitization to rifampin: well diffusion growth inhibition on LB plates containing rifampin; format: cell-based, Acinetobacter baumannii; conditions: 4 μg of compound
[8] = test system: C. freundii ATCC8090; assay: Well diffusion growth inhibition on LB agar plates (direct antibacterial activity); format: cell-based, Citrobacter freundii
Description: as §1, §2

[9] = test system: K. oxytoca ATCC13182; assay: as above; format: cell-based, Klebsiella oxytoca
Description: as §1, §2

[10] = test system: Pseudomonas aeruginosa ATCC 27853; assay: as above; format: cell-based; conditions: Ps. aeruginosa ATCC 27853
Description: as §1
(§3) Direct antibacterial activity of twelve NAB compounds against Acinetobacter baumannii ATCC 19606 and Pseudomonas aeruginosa ATCC 27853 was tested by using the susceptibility determination method described in Example 2. Five compounds (NAB7062, NAB734, NAB737, NAB739, and NAB740) had notable activity against A. baumannii. […] The antibacterial activity of NAB739 and NAB740 were as strong as or even stronger than that of polymyxin B.

[11] = test system: Acinetobacter baumannii ATCC 19606; assay: as above; format: cell-based; conditions: A. baumannii ATCC 19606
Description: as §1, §3

[12] = test system: Ps. aeruginosa ATCC 27853; assay: Sensitization to rifampin: well diffusion growth inhibition on LB plates containing rifampin; format: cell-based, Pseudomonas aeruginosa; conditions: 4 μg of compound
[13] = test system: E. coli ATCC25922; assay: Well diffusion growth inhibition on LB agar plates (direct antibacterial activity); format: cell-based, Escherichia coli
Description: as §1, with “Samples (4 μl and 10 μl) of the peptide solution in 0.9% NaCl (at concentrations of 1 μg/ml and 0.1 μg/ml) were then pipetted to the wells and the sample fluids were allowed to absorb.” left out
as §2

[14] = test system: S. marcescens ATCC8100; assay: as above; format: cell-based, Serratia marcescens
Description: as §1, §2

[15] = test system: K. pneumoniae CCUG45421; assay: as above; format: cell-based, Klebsiella pneumoniae
Description: as §1, with “Samples (4 μl and 10 μl) of the peptide solution in 0.9% NaCl (at concentrations of 1 μg/ml and 0.1 μg/ml) were then pipetted to the wells and the sample fluids were allowed to absorb.” left out
as §2

OA-Thr-DSer-cy[Dab-Dab-DPhe-Thr-Dab-Dab-Thr-] [NAB 734]
Antibacterial activity in the presence of rifampin (growth inhibition area around a well) ([1]; rifampin 0 μg/ml): 113 square millimeters | Antibacterial activity in the presence of rifampin (growth inhibition area around a well) ([1]; rifampin 0.1 μg/ml): 154 square millimeters | Antibacterial activity in the presence of rifampin (growth inhibition area around a well) ([1]; rifampin 1.0 μg/ml): 201 square millimeters | Antibacterial activity (growth inhibition area around a well) ([2]; 4 μg per well): 133 square millimeters | Antibacterial activity (growth inhibition area around a well) ([2]; 10 μg per well): 177 square millimeters | Antibacterial activity (growth inhibition area around a well) ([3]; 4 μg of compound per well): 113 square millimeters | Antibacterial activity (growth inhibition area around a well) ([3]; 10 μg of compound per well): 177 square millimeters and 154 square millimeters | Antibacterial activity (growth inhibition area around a well) ([4]; 4 μg per well): 0 square millimeters | Antibacterial activity (growth inhibition area around a well) ([4]; 10 μg per well): 0 square millimeters | Antibacterial activity (growth inhibition area around a well) ([5]; 4 μg per well): 64 square millimeters | Antibacterial activity (growth inhibition area around a well) ([5]; 10 μg per well): 113 square millimeters | Antibacterial activity (growth inhibition area around a well) ([6]; 4 μg per well): 0 square millimeters | Antibacterial activity (growth inhibition area around a well) ([6]; 10 μg per well): 0 square millimeters | Antibacterial activity in the presence of rifampin (growth inhibition area around a well) ([7]; rifampin 0 μg/ml): 38 square millimeters | Antibacterial activity in the presence of rifampin (growth inhibition area around a well) ([7]; rifampin 0.1 μg/ml): 201 square millimeters | Antibacterial activity in the presence of rifampin (growth inhibition area around a well) ([7]; rifampin 0.3 μg/ml): 283 square millimeters | Antibacterial activity (growth inhibition area around a well) ([8]; 4 μg per well): 133 square millimeters | Antibacterial activity (growth inhibition area around a well) ([8]; 10 μg per well): 177 square millimeters | Antibacterial activity (growth inhibition area around a well) ([9]; 4 μg per well): 95 square millimeters | Antibacterial activity (growth inhibition area around a well) ([9]; 10 μg per well): 143 square millimeters | Antibacterial activity (growth inhibition area around a well) ([10]; 4 μg per well): 13 square millimeters | Antibacterial activity (growth inhibition area around a well) ([10]; 10 μg per well): 50 square millimeters | Antibacterial activity (growth inhibition area around a well) ([11]; 4 μg per well): 38 square millimeters and 57 square millimeters | Antibacterial activity (growth inhibition area around a well) ([11]; 10 μg per well): 95 square millimeters and 79 square millimeters | Antibacterial activity in the presence of rifampin (growth inhibition area around a well) ([12]; rifampin 0 μg/ml): 13 square millimeters | Antibacterial activity in the presence of rifampin (growth inhibition area around a well) ([12]; rifampin 0.1 μg/ml): 20 square millimeters | Antibacterial activity in the presence of rifampin (growth inhibition area around a well) ([12]; rifampin 0.3 μg/ml): 20 square millimeters | Antibacterial activity (growth inhibition area around a well) ([13]; 4 μg per well): 133 square millimeters | Antibacterial activity (growth inhibition area around a well) ([13]; 10 μg per well): 177 square millimeters | Antibacterial activity (growth inhibition area around a well) ([14]; 4 μg per well): 0 square millimeters | Antibacterial activity (growth inhibition area around a well) ([14]; 10 μg per well): 0 square millimeters | Antibacterial activity (growth inhibition area around a well) ([15]; 4 μg per well): 64 square millimeters | Antibacterial activity (growth inhibition area around a well) ([15]; 10 μg per well): 104 square millimeters

Polymyxin B nonapeptide [reference compound]
Antibacterial activity in the presence of rifampin (growth inhibition area around a well) ([1]; rifampin 0 μg/ml): 0 square millimeters | Antibacterial activity in the presence of rifampin (growth inhibition area around a well) ([1]; rifampin 0.1 μg/ml): 20 square millimeters | Antibacterial activity in the presence of rifampin (growth inhibition area around a well) ([1]; rifampin 1.0 μg/ml): 113 square millimeters | Antibacterial activity (growth inhibition area around a well) ([3]; 4 μg of compound per well): 0 square millimeters | Antibacterial activity (growth inhibition area around a well) ([3]; 10 μg of compound per well): 0 square millimeters | Antibacterial activity in the presence of rifampin (growth inhibition area around a well) ([7]; rifampin 0 μg/ml): 0 square millimeters | Antibacterial activity in the presence of rifampin (growth inhibition area around a well) ([7]; rifampin 0.1 μg/ml): 133 square millimeters | Antibacterial activity in the presence of rifampin (growth inhibition area around a well) ([7]; rifampin 0.3 μg/ml): 154 square millimeters | Antibacterial activity (growth inhibition area around a well) ([10]; 4 μg per well): 113 square millimeters | Antibacterial activity (growth inhibition area around a well) ([10]; 10 μg per well): 177 square millimeters | Antibacterial activity (growth inhibition area around a well) ([11]; 4 μg per well): 0 square millimeters | Antibacterial activity (growth inhibition area around a well) ([11]; 10 μg per well): 0 square millimeters | Antibacterial activity in the presence of rifampin (growth inhibition area around a well) ([12]; rifampin 0 μg/ml): 113 square millimeters | Antibacterial activity in the presence of rifampin (growth inhibition area around a well) ([12]; rifampin 0.1 μg/ml): 113 square millimeters | Antibacterial activity in the presence of rifampin (growth inhibition area around a well) ([12]; rifampin 0.3 μg/ml): 154 square millimeters

Polymyxin B sulfate [reference compound]
Antibacterial activity (growth inhibition area around a well) ([2]; 4 μg per well): 95 square millimeters | Antibacterial activity (growth inhibition area around a well) ([2]; 10 μg per well): 143 square millimeters | Antibacterial activity (growth inhibition area around a well) ([3]; 4 μg of compound per well): 95 square millimeters | Antibacterial activity (growth inhibition area around a well) ([3]; 10 μg of compound per well): 133 square millimeters | Antibacterial activity (growth inhibition area around a well) ([4]; 4 μg per well): 0 square millimeters | Antibacterial activity (growth inhibition area around a well) ([4]; 10 μg per well): 0 square millimeters | Antibacterial activity (growth inhibition area around a well) ([5]; 4 μg per well): 79 square millimeters | Antibacterial activity (growth inhibition area around a well) ([5]; 10 μg per well): 113 square millimeters | Antibacterial activity (growth inhibition area around a well) ([6]; 4 μg per well): 0 square millimeters | Antibacterial activity (growth inhibition area around a well) ([6]; 10 μg per well): 0 square millimeters | Antibacterial activity (growth inhibition area around a well) ([8]; 4 μg per well): 95 square millimeters | Antibacterial activity (growth inhibition area around a well) ([8]; 10 μg per well): 154 square millimeters | Antibacterial activity (growth inhibition area around a well) ([9]; 4 μg per well): 79 square millimeters | Antibacterial activity (growth inhibition area around a well) ([9]; 10 μg per well): 104 square millimeters | Antibacterial activity (growth inhibition area around a well) ([10]; 4 μg per well): 95 square millimeters | Antibacterial activity (growth inhibition area around a well) ([10]; 10 μg per well): 133 square millimeters | Antibacterial activity (growth inhibition area around a well) ([11]; 4 μg per well): 113 square millimeters | Antibacterial activity (growth inhibition area around a well) ([11]; 10 μg per well): 154 square millimeters | Antibacterial activity (growth inhibition area around a well) ([13]; 4 μg per well): 95 square millimeters | Antibacterial activity (growth inhibition area around a well) ([13]; 10 μg per well): 133 square millimeters | Antibacterial activity (growth inhibition area around a well) ([14]; 4 μg per well): 0 square millimeters | Antibacterial activity (growth inhibition area around a well) ([14]; 10 μg per well): 0 square millimeters | Antibacterial activity (growth inhibition area around a well) ([15]; 4 μg per well): 95 square millimeters | Antibacterial activity (growth inhibition area around a well) ([15]; 10 μg per well): 133 square millimeters

Source: patent US9067974B2, “Polymyxin derivatives and uses thereof” (priority 2006, dated 2015)
